Test results from patent US4826840A, “Cerebral protecting agent” (Taiyo Pharmaceutical Industry Co., Ltd., priority 1987, dated 1989).
Counter-ions that a name gives are not always drawn.

Tests used:
[1] = Protective effect against KCN death; type: in vivo, ddY male mice
Measurement of LD50 = details: mouse, in vivo
Text: ddY male mice having been preliminary bred in the same manner as Example 7 were orally given the test compounds to determine LD50.

[2] = Effect on brain ischemia model by MgCl2; type: in vivo, ddY male mice; details: for Survival Time: 2 h before saturated MgCl2 i.v.; for Prolongation of survival time (in words): doses of about 40 mg/kg, oral
Protocol: ddY male mice (age: 7 weeks) having been preliminary bred in the same manner as in Example 7 were fasted and orally administered with the test compounds dissolved in 0.3%methylcellulose solution. Two (2) hours later, 0.05 ml of saturated solution of MgCl2 was intravenously administered rapidly through the caudal vein. The […] was determined as the period of time until final gasping.

[3] = Effect on bicuculline convulsion; type: in vivo, Wister male rats; details: 1 h before bicuculline 1.75 mg/kg i.v.; for Inhibition of the tonic extension (in words): oral
Protocol: Each test compound was dissolved in 0.5% methylcellulose solution and orally administered to each mouse, and 1 hour later 1.75 mg/kg of bicuculline was given intravenously through caudal vein over the period of 15 seconds. Then, the tonic hindpaw extension was observed.

[4] = tested on: vertebral artery blood flow; assay: Effect on vertebral artery blood flow; type: in vivo, Male adult dogs; details: for Increase in VBF (Δ%): n = 3; for Increase of VBF (in words): i.v., anesthetized dogs
Protocol: (§1) Male adult dogs (weight: […]) were used for the experiment after they were preliminary bred in the metal cage for 1 week in a breeding room in which the temperature was controlled at 22±2° C. and the humidity was at 55±10%. They were given pelleted diet (CS, product of Oriental Yeast Co.) and water ad lib. Prior to submitting the animals to the experiment, they were fasted for 21-23 hours.
(§2) The dogs were anesthetized with sodium pentobarbital and probes for measuring the blood flows were fitted on the right vertebral artery and right common carotid artery. After measuring the control blood flows, the test compounds dissolved in physiological saline were intravenously administered. The vertebral artery blood flow (VBF) and the common carotid artery flow (CCBF) were measured to determine the increments of the blood flow resulting from administration of the test compounds.

[5] = tested on: common carotid artery blood flow; assay: Effect on common carotid artery blood flow; type: in vivo, Male adult dogs; details: for Increase in CCBF (Δ%): n = 3; for Increase of CCBF (in words): i.v., anesthetized dogs
Protocol: as §1, §2

[6] = 40 mg/kg p.o., 2 h before KCN 2.1 mg/kg i.v.

SMILES: CCCCC1=Cc2cc3c(cc2C1N1CCN(CCCC)CC1)OCO3 (centres unmarked) [Compound 3b]
- Rate of Survival (%) [1, 6]: 33%
- Survived Animals/Tested Animals [1, 6]: 3/9
- LD50 (Measurement of LD50; oral, ddY male mice): 430 mg/kg

SMILES: CCCCC1=Cc2cc3c(cc2C1N1CCN(C)CC1)OCO3 (centres unmarked) [Compound 1c, Dihydrochloride of 1-(4-methylpiperazinyl)-2-n-butyl-5,6-methylenedioxyindene]
- Rate of Survival (%) ([1]; mouse, in vivo): 78%
- Survived Animals/Tested Animals ([1]; mouse, in vivo): 7/9
- Survival Time ([2]; 40 mg/kg oral): 28.8 ± 0.6 s
- Survival Time ([2]; 80 mg/kg oral): 32.3 ± 0.6 s
- Prolongation of survival time (in words) [2]: significant prolongation of survival time dose-dependency
- Animals Convulsed/Animals Tested ([3]; 1 mg/kg oral): 8/10
- Rate of Convulsion Inhibition (%) ([3]; 1 mg/kg oral): 20%
- Animals Convulsed/Animals Tested ([3]; 5 mg/kg oral): 5/10
- Rate of Convulsion Inhibition (%) ([3]; 5 mg/kg oral): 50%
- Animals Convulsed/Animals Tested ([3]; 10 mg/kg oral): 1/10
- Rate of Convulsion Inhibition (%) ([3]; 10 mg/kg oral): 90%
- Animals Convulsed/Animals Tested ([3]; 15 mg/kg oral): 0/10
- Rate of Convulsion Inhibition (%) ([3]; 15 mg/kg oral): 100%
- Inhibition of the tonic extension (in words) [3]: inhibited the tonic extension dose-dependency
- Increase in VBF (Δ%) ([4]; 0.3 mg/kg i.v., 1 min): 6.3 ± 6.3 Δ%
- Increase in VBF (Δ%) ([4]; 0.3 mg/kg i.v., 2 min): 19.7 ± 9.0 Δ%
- Increase in VBF (Δ%) ([4]; 0.3 mg/kg i.v., 3 min): 32.2 ± 15.8 Δ%
- Increase in VBF (Δ%) ([4]; 0.3 mg/kg i.v., 4 min): 26.5 ± 13.2 Δ%
- Increase in VBF (Δ%) ([4]; 0.3 mg/kg i.v., 5 min): 16.1 ± 7.9 Δ%
- Increase in VBF (Δ%) ([4]; 0.3 mg/kg i.v., 10 min): 12.5 ± 12.5 Δ%
- Increase in VBF (Δ%) ([4]; 0.3 mg/kg i.v., 15 min): 15.5 ± 11.3 Δ%
- Increase in VBF (Δ%) ([4]; 1 mg/kg i.v., 1 min): 9.6 ± 5.1 Δ%
- Increase in VBF (Δ%) ([4]; 1 mg/kg i.v., 2 min): 59.6 ± 33.3 Δ%
- Increase in VBF (Δ%) ([4]; 1 mg/kg i.v., 3 min): 74.5 ± 36.3 Δ%
- Increase in VBF (Δ%) ([4]; 1 mg/kg i.v., 4 min): 68.9 ± 39.3 Δ%
- Increase in VBF (Δ%) ([4]; 1 mg/kg i.v., 5 min): 39.2 ± 27.5 Δ%
- Increase in VBF (Δ%) ([4]; 1 mg/kg i.v., 10 min): 14.0 ± 8.5 Δ%
- Increase in VBF (Δ%) ([4]; 1 mg/kg i.v., 15 min): 11.7 ± 9.0 Δ%
- Increase in VBF (Δ%) ([4]; 3 mg/kg i.v., 1 min): 44.2 ± 16.3 Δ%
- Increase in VBF (Δ%) ([4]; 3 mg/kg i.v., 2 min): 154.7 ± 56.5 Δ%
- Increase in VBF (Δ%) ([4]; 3 mg/kg i.v., 3 min): 173.7 ± 61.6 Δ%
- Increase in VBF (Δ%) ([4]; 3 mg/kg i.v., 4 min): 143.6 ± 54.0 Δ%
- Increase in VBF (Δ%) ([4]; 3 mg/kg i.v., 5 min): 111.4 ± 49.6 Δ%
- Increase in VBF (Δ%) ([4]; 3 mg/kg i.v., 10 min): 65.8 ± 30.5 Δ%
- Increase in VBF (Δ%) ([4]; 3 mg/kg i.v., 15 min): 37.5 ± 18.4 Δ%
- Increase of VBF (in words) [4]: increased VBF and CCBF dose-dependently
- Increase in CCBF (Δ%) ([5]; 0.3 mg/kg i.v., 1 min): 2.4 ± 1.3 Δ%
- Increase in CCBF (Δ%) ([5]; 0.3 mg/kg i.v., 2 min): 4.5 ± 0.7 Δ%
- Increase in CCBF (Δ%) ([5]; 0.3 mg/kg i.v., 3 min): 4.5 ± 0.7 Δ%
- Increase in CCBF (Δ%) ([5]; 0.3 mg/kg i.v., 4 min): 4.5 ± 0.7 Δ%
- Increase in CCBF (Δ%) ([5]; 0.3 mg/kg i.v., 5 min): 0.8 ± 2.7 Δ%
- Increase in CCBF (Δ%) ([5]; 0.3 mg/kg i.v., 10 min): 0 ± 0 Δ%
- Increase in CCBF (Δ%) ([5]; 0.3 mg/kg i.v., 15 min): 2.2 ± 2.8 Δ%
- Increase in CCBF (Δ%) ([5]; 1 mg/kg i.v., 1 min): 5.2 ± 0.8 Δ%
- Increase in CCBF (Δ%) ([5]; 1 mg/kg i.v., 2 min): 11.9 ± 4.7 Δ%
- Increase in CCBF (Δ%) ([5]; 1 mg/kg i.v., 3 min): 13.9 ± 7.4 Δ%
- Increase in CCBF (Δ%) ([5]; 1 mg/kg i.v., 4 min): 12.8 ± 7.2 Δ%
- Increase in CCBF (Δ%) ([5]; 1 mg/kg i.v., 5 min): 6.4 ± 3.6 Δ%
- Increase in CCBF (Δ%) ([5]; 1 mg/kg i.v., 10 min): 1.1 ± 1.1 Δ%
- Increase in CCBF (Δ%) ([5]; 1 mg/kg i.v., 15 min): 3.6 ± 2.0 Δ%
- Increase in CCBF (Δ%) ([5]; 3 mg/kg i.v., 1 min): 9.5 ± 2.7 Δ%
- Increase in CCBF (Δ%) ([5]; 3 mg/kg i.v., 2 min): 19.0 ± 16.1 Δ%
- Increase in CCBF (Δ%) ([5]; 3 mg/kg i.v., 3 min): 14.1 ± 18.0 Δ%
- Increase in CCBF (Δ%) ([5]; 3 mg/kg i.v., 4 min): 12.7 ± 14.2 Δ%
- Increase in CCBF (Δ%) ([5]; 3 mg/kg i.v., 5 min): 9.3 ± 10.8 Δ%
- Increase in CCBF (Δ%) ([5]; 3 mg/kg i.v., 10 min): 6.1 ± 5.8 Δ%
- Increase in CCBF (Δ%) ([5]; 3 mg/kg i.v., 15 min): 4.9 ± 5.0 Δ%
- Increase of CCBF (in words) [5]: increased VBF and CCBF dose-dependently
- LD50 (Measurement of LD50; po): 368 mg/kg

SMILES: CCCCC1=Cc2cc3c(cc2C1N1CCN(CCC)CC1)OCO3 (centres unmarked) [Compound 2b]
- Rate of Survival (%) ([1]; mouse, in vivo): 50%
- Survived Animals/Tested Animals ([1]; mouse, in vivo): 5/10
- Survival Time ([2]; 40 mg/kg oral): 28.3 ± 1.5 s
- Survival Time ([2]; 80 mg/kg oral): 32.4 ± 1.5 s
- Prolongation of survival time (in words) [2]: significant prolongation of survival time dose-dependency
- Animals Convulsed/Animals Tested ([3]; 5 mg/kg oral): 6/10
- Rate of Convulsion Inhibition (%) ([3]; 5 mg/kg oral): 40%
- Animals Convulsed/Animals Tested ([3]; 10 mg/kg oral): 5/10
- Rate of Convulsion Inhibition (%) ([3]; 10 mg/kg oral): 50%
- Animals Convulsed/Animals Tested ([3]; 15 mg/kg oral): 2/10
- Rate of Convulsion Inhibition (%) ([3]; 15 mg/kg oral): 80%
- Animals Convulsed/Animals Tested ([3]; 20 mg/kg oral): 0/10
- Rate of Convulsion Inhibition (%) ([3]; 20 mg/kg oral): 100%
- Inhibition of the tonic extension (in words) [3]: inhibited the tonic extension dose-dependency
- Increase in VBF (Δ%) ([4]; 1 mg/kg i.v., 1 min): 7.2 ± 4.9 Δ%
- Increase in VBF (Δ%) ([4]; 1 mg/kg i.v., 2 min): 18.6 ± 7.4 Δ%
- Increase in VBF (Δ%) ([4]; 1 mg/kg i.v., 3 min): 24.6 ± 8.3 Δ%
- Increase in VBF (Δ%) ([4]; 1 mg/kg i.v., 4 min): 17.6 ± 8.8 Δ%
- Increase in VBF (Δ%) ([4]; 1 mg/kg i.v., 5 min): 3.7 ± 3.7 Δ%
- Increase in VBF (Δ%) ([4]; 3 mg/kg i.v., 1 min): 43.1 ± 28.5 Δ%
- Increase in VBF (Δ%) ([4]; 3 mg/kg i.v., 2 min): 74.3 ± 23.3 Δ%
- Increase in VBF (Δ%) ([4]; 3 mg/kg i.v., 3 min): 78.2 ± 28.2 Δ%
- Increase in VBF (Δ%) ([4]; 3 mg/kg i.v., 4 min): 40.5 ± 21.1 Δ%
- Increase in VBF (Δ%) ([4]; 3 mg/kg i.v., 5 min): 18.5 ± 12.7 Δ%
- Increase of VBF (in words) [4]: increased VBF and CCBF dose-dependently
- Increase in CCBF (Δ%) ([5]; 1 mg/kg i.v., 1 min): 1.5 ± 1.5 Δ%
- Increase in CCBF (Δ%) ([5]; 1 mg/kg i.v., 2 min): 5.2 ± 1.6 Δ%
- Increase in CCBF (Δ%) ([5]; 1 mg/kg i.v., 3 min): 2.4 ± 1.2 Δ%
- Increase in CCBF (Δ%) ([5]; 1 mg/kg i.v., 4 min): 1.4 ± 1.4 Δ%
- Increase in CCBF (Δ%) ([5]; 1 mg/kg i.v., 5 min): -1.0 ± 1.0 Δ%
- Increase in CCBF (Δ%) ([5]; 3 mg/kg i.v., 1 min): 7.1 ± 5.6 Δ%
- Increase in CCBF (Δ%) ([5]; 3 mg/kg i.v., 2 min): 9.8 ± 7.4 Δ%
- Increase in CCBF (Δ%) ([5]; 3 mg/kg i.v., 3 min): 4.6 ± 4.8 Δ%
- Increase in CCBF (Δ%) ([5]; 3 mg/kg i.v., 4 min): -1.8 ± 4.3 Δ%
- Increase in CCBF (Δ%) ([5]; 3 mg/kg i.v., 5 min): -5.9 ± 2.1 Δ%
- Increase of CCBF (in words) [5]: increased VBF and CCBF dose-dependently
- LD50 (Measurement of LD50; po): 450 mg/kg

SMILES: CCCCC1=C(c2ccccc2)c2cc3c(cc2C1N1CCN(CCC)CC1)OCO3 (centres unmarked) [Compound 6b]
- Rate of Survival (%) [1, 6]: 30%
- Survived Animals/Tested Animals [1, 6]: 3/10
- LD50 (Measurement of LD50; oral, ddY male mice): 608 mg/kg

SMILES: CCCCC1=Cc2cc3c(cc2C1N1CCCN(CCC)CC1)OCO3 (centres unmarked) [Compound 4b]
- Rate of Survival (%) [1, 6]: 56%
- Survived Animals/Tested Animals [1, 6]: 5/9
- LD50 (Measurement of LD50; oral, ddY male mice): 373 mg/kg

SMILES: CCCCC1=C(C)c2cc3c(cc2C1N1CCN(CCC)CC1)OCO3 (centres unmarked) [Compound 5b]
- Rate of Survival (%) [1, 6]: 56%
- Survived Animals/Tested Animals [1, 6]: 5/9
- LD50 (Measurement of LD50; oral, ddY male mice): 510 mg/kg

SMILES: CCOC(=O)C1=C[C@]2(CC)CCCN3CCc4c(n1c1ccccc41)[C@@H]32 [vinpocetine, reference compound]
- Survival Time ([2]; 80 mg/kg oral): 22.5 ± 1.1 s

SMILES: COC(=O)C1=C(C)NC(C)=C(C(=O)OCCN(C)Cc2ccccc2)C1c1cccc([N+](=O)[O-])c1 (centres unmarked) [nicardipine, reference compound]
- Survival Time ([2]; 80 mg/kg oral): 24.3 ± 1.0 s
